Experimental findings from patent publication US9241487B2, “Pyrimidine derivatives and use thereof as pesticides” (BAYER INTELLECTUAL PROPERTY GMBH, priority 2010, dated 2016) are described below.

Common to all, as to format: in vivo
The subject of one assay is Uromyces appendiculatus. Description: Uromyces test (bean)/protective. Particulars: 240 h, protective spray, evaluation 10 days after inoculation, read-out: Efficacy (%). On the procedure: Uromyces Test (Bean)/Protective
(§1) Solvents: 24.5 parts by weight of acetone
(§2) • 24.5 parts by weight of dimethylacetamide Emulsifier: 1 part by weight of alkylaryl polyglycol ether
To produce a suitable preparation of active compound, 1 part by weight of active compound is mixed with the stated amounts of solvent and emulsifier, and the concentrate is diluted with water to the desired concentration. To test for protective activity, young plants are sprayed with the preparation of active compound at the stated application rate. After the spray coating has dried on, the plants are inoculated with an aqueous spore suspension of the bean rust pathogen Uromyces appendiculatus and then remain in an incubation cabin at about 20° C. and 100% relative atmospheric humidity for 1 day. The plants are then placed in the greenhouse at about 21° C. and a relative atmospheric humidity of about 90%. Evaluation follows 10 days after the inoculation. 0% means an efficacy which corresponds to that of the control, whereas an efficacy of 100% means that no infection is observed.
(§3) In this test, the following compounds according to the invention show, at an active compound concentration of 100 ppm, an efficacy of 70% or more: […]

The next assay has as its system Venturia inaequalis. In words: Venturia test (apple)/protective. Particulars: 240 h, protective spray, evaluation 10 days after inoculation, read-out: Efficacy (%). The protocol:
Venturia Test (Apple)/Protective
as §1, §2
To produce a suitable preparation of active compound, 1 part by weight of active compound is mixed with the stated amounts of solvent and emulsifier, and the concentrate is diluted with water to the desired concentration. To test for protective activity, young plants are sprayed with the preparation of active compound at the stated application rate. After the spray coating has dried on, the plants are inoculated with an aqueous conidia suspension of the apple scab pathogen Venturia inaequalis and then remain in an incubation cabin at approx. 20° C. and 100% relative air humidity for 1 day. The plants are then placed in the greenhouse at about 21° C. and a relative atmospheric humidity of about 90%. Evaluation follows 10 days after the inoculation. 0% means an efficacy which corresponds to that of the control, whereas an efficacy of 100% means that no infection is observed.
as §3

Another assay relates to Sphaerotheca fuliginea. Description: Sphaerotheca test (cucumber)/protective. The note with it: Podosphaera fuliginea, 168 h, cucumber plants, protective spray, evaluation 7 days after inoculation, read-out: Efficacy (%). The protocol:
Sphaerotheca Test (Cucumber)/Protective
(§4) Solvent: 49 parts by weight of N,N-dimethylformamide
(§5) Emulsifier: 1 part by weight of alkylaryl polyglycol ether
To produce a suitable preparation of active compound, 1 part by weight of active compound is mixed with the stated amounts of solvent and emulsifier, and the concentrate is diluted with water to the desired concentration. To test for protective activity, young cucumber plants are sprayed with the preparation of active compound at the stated application rate. 1 day after the treatment, the plants are inoculated with a spore suspension of Sphaerotheca fuliginea. The plants are then placed in a greenhouse at 70% relative air humidity and a temperature of 23° C. Evaluation follows 7 days after the inoculation. 0% means an efficacy which corresponds to that of the control, whereas an efficacy of 100% means that no infection is observed. In this test, the following compounds according to the invention show, at an active compound concentration of 500 ppm, an efficacy of 70% or more: […]

Another assay relates to Septoria tritici. Description: Septoria tritici test (wheat)/protective. The note with it: Zymoseptoria tritici, 504 h, protective spray, evaluation 21 days after inoculation, read-out: Efficacy (%). On the procedure:
Septoria tritici Test (Wheat)/Protective
(§6) Solvent: 49 parts by weight of N,N-dimethylacetamide
as §5
To produce a suitable preparation of active compound, 1 part by weight of active compound is mixed with the stated amounts of solvent and emulsifier, and the concentrate is diluted with water to the desired concentration. To test for protective activity, young plants are sprayed with the preparation of active compound at the stated application rate. After the spray coating has dried on, the plants are sprayed with a spore suspension of Septoria tritici. The plants remain in an incubation cabin at 20° C. and 100% relative atmospheric humidity for 48 hours. Thereafter, the plants are placed under a translucent hood at 15° C. and 100% relative air humidity for a further 60 hours. The plants are placed in a greenhouse at a temperature of about 15° C. and a relative atmospheric humidity of about 80%. Evaluation follows 21 days after the inoculation. 0% means an efficacy which corresponds to that of the control, whereas an efficacy of 100% means that no infection is observed.
(§7) In this test, the following compounds according to the invention show, at an active compound concentration of 500 ppm, an efficacy of 70% or more: […]

The next assay concerns Leptosphaeria nodorum. Description: Leptosphaeria nodorum test (wheat)/protective. The note with it: Parastagonospora nodorum, wheat plants, protective spray, evaluation 7-9 days after inoculation, read-out: Efficacy (%). On the procedure:
Leptosphaeria nodorum Test (Wheat)/Protective
as §4, §5
To produce a suitable preparation of active compound, 1 part by weight of active compound is mixed with the stated amounts of solvent and emulsifier, and the concentrate is diluted with water to the desired concentration. To test for protective activity, young wheat plants are sprayed with the preparation of active compound at the stated application rate. 1 day after the treatment, the plants are inoculated with an aqueous spore suspension of Leptosphaeria nodorum and then remain at 100% relative atmospheric humidity and 22° C. for 48 h. The plants are then placed in a greenhouse at 90% relative atmospheric humidity and a temperature of 22° C. Evaluation is carried out 7-9 days after the inoculation. 0% means an efficacy which corresponds to that of the control, whereas an efficacy of 100% means that no infection is observed. In this test, the following compounds according to the invention show, at an active compound concentration of 500 ppm, an efficacy of 70% or more: […]

The subject of assay [1] is Blumeria graminis fsp. hordei. Description: Blumeria graminis test (barley)/protective. Particulars: 168 h, protective spray, evaluation 7 days after inoculation, read-out: Efficacy (%). On the procedure:
Blumeria graminis Test (Barley)/Protective
as §6, §5
To produce a suitable preparation of active compound, 1 part by weight of active compound is mixed with the stated amounts of solvent and emulsifier, and the concentrate is diluted with water to the desired concentration. To test for protective activity, young plants are sprayed with the preparation of active compound at the stated application rate. After the spray coating has dried on, the plants are dusted with spores of Blumeria graminis fsp. hordei. The plants are placed in a greenhouse at a temperature of about 18° C. and a relative air humidity of about 80% to promote the development of mildew pustules. Evaluation follows 7 days after the inoculation. 0% means an efficacy which corresponds to that of the control, whereas an efficacy of 100% means that no infection is observed.
as §7

The next assay deals with Alternaria solani. Description: Alternaria test (tomato)/protective. The note with it: 168 h, tomato plants, protective spray, evaluation 7 days after inoculation, read-out: Efficacy (%). The protocol:
Alternaria Test (Tomato)/Protective
as §4, §5
To produce a suitable preparation of active compound, 1 part by weight of active compound is mixed with the stated amounts of solvent and emulsifier, and the concentrate is diluted with water to the desired concentration. To test for protective activity, young tomato plants are sprayed with the preparation of active compound at the stated application rate. 1 day after the treatment, the plants are inoculated with a spore suspension of Alternaria solani and then remain at 100% rd. humidity and 22° C. for 24 h. The plants then remain at 96% rd. atmospheric humidity and a temperature of 20° C. Evaluation is carried out 7 days after the inoculation. 0% means an efficacy which corresponds to that of the control, whereas an efficacy of 100% means that no infection is observed.
as §7

On to `CC(C)C(O)(COc1ccc(OC(F)(F)F)cc1)c1cncnc1` (stereo not shown) [Compound 2], for which the pest or weed control at 100 ppm was 100% in the assay on Uromyces appendiculatus and 94% in the assay on Venturia inaequalis. In addition, the pest or weed control at 500 ppm in the assay on Sphaerotheca fuliginea amounted to 99%; with Septoria tritici, 93%; in the assay on Leptosphaeria nodorum, 100%; in assay [1], 100%; in the assay with Alternaria solani it was 100%.

As to `CC(C)(C)C(O)(COc1ccc(OC(F)(F)F)cc1)c1cncnc1` (stereo not shown) [Compound 12], the pest or weed control at 100 ppm in the assay with Uromyces appendiculatus came to 100%; in the assay on Venturia inaequalis it was 99%. Also, the pest or weed control at 500 ppm turned out to be 100% in the assay on Sphaerotheca fuliginea; 100% with Septoria tritici; 95% in the assay with Leptosphaeria nodorum; 100% in assay [1]; 100% in the assay with Alternaria solani.

For `CC(C)(C)C(O)(COc1ccc(SC(F)(F)F)cc1)c1cncnc1` (stereo not shown) [Compound 17], the pest or weed control at 100 ppm in the assay with Uromyces appendiculatus and in the assay with Venturia inaequalis was 100% each time. Moreover, the pest or weed control at 500 ppm in the assay with Sphaerotheca fuliginea amounted to 95%; in the assay on Septoria tritici, 100%; with Leptosphaeria nodorum, 94%; in assay [1] it was 100%; in the assay with Alternaria solani, 94%.

For `CC1(C(O)(COc2ccc(OC(F)(F)F)cc2)c2cncnc2)CC1` (stereo not shown) [Compound 18], the pest or weed control at 100 ppm in the assay on Uromyces appendiculatus was 100%; in the assay with Venturia inaequalis, 99%. Moreover, the pest or weed control at 500 ppm with Sphaerotheca fuliginea was 95%; with Septoria tritici, 100%; with Leptosphaeria nodorum it was 95%; in assay [1], 100%; in the assay with Alternaria solani it was 90%.
